{
  "source": "patent US20200368315A1",
  "about": "“ANTIMICROBIAL PEPTIDES AND ADMIXTURES THEREOF SHOWING ANTIMICROBIAL ACTIVITY AGAINST GRAM-NEGATIVE PATHOGENS” (priority 2017, published 2020)",
  "key": {"[1]": {"test_system": "E. coli LMG15862", "assay": "microbe, parasite or virus in culture", "type": "cell-based, Escherichia coli", "settings": "E. coli LMG15862", "procedure": "(§1) Escherichia coli, Klebsiella pneumoniae, Pseudomonas aeruginosa, Acinetobacter baumannii, Enterobacter aerogenes were grown in Luria-Bertani (LB) broth shaken (200 rpm) or on LB agar at 37° C. […] MICs tests were performed in duplicate by a liquid growth inhibition microdilution assays in sterilized polypropylene microtiter plates according to Wiegand and […] [27]. […] The suspension was diluted in a ratio of 1:100 using Mueller Hinton Broth (MHB) and the final inoculum is 5*10^5 CFU/mL. […] The antimicrobials were diluted serially by 1/2 one by one and 50 uL diluted bacterial suspension were added to each well to make the final volume to be 100 uL. Growth control was accomplished by remove 10 uL from well 11 and dilute 1000 times to plate 1/10 suspension on the solid medium. […] The number of colonies on the control agar plate should be around 50 to ensure the concentration of the inoculum and the effectiveness of the experiment. The lowest concentration of the antimicrobials that inhibits visible growth of the indicator is identified as MIC."}, "[2]": {"test_system": "K. pneumoniae LMG20218", "assay": "microbe, parasite or virus in culture", "type": "cell-based, Klebsiella pneumoniae", "settings": "K. pneumoniae LMG20218", "procedure": "as §1"}, "[3]": {"test_system": "P. aeruginosa LMG 6395", "assay": "microbe, parasite or virus in culture", "type": "cell-based, Pseudomonas aeruginosa", "settings": "P. aeruginosa LMG 6395", "procedure": "as §1"}, "[4]": {"test_system": "A. baumannii LMG01041", "assay": "microbe, parasite or virus in culture", "type": "cell-based, Acinetobacter baumannii", "settings": "A. baumannii LMG01041", "procedure": "as §1"}, "[5]": {"test_system": "E. aerogenes LMG 02094", "assay": "microbe, parasite or virus in culture", "type": "cell-based, Enterobacter aerogenes", "settings": "E. aerogenes LMG 02094", "procedure": "as §1"}, "[6]": {"test_system": "E. coli LMG15862", "type": "cell-based, Escherichia coli", "source_text": "(§2) The test of synergistic effect was processed by conducting standard chequerboard broth microdilution assays. Nisin (Drug X) was loaded two fold serially diluted from row 1 to 10 in X-axis while GNPs (Drug Y) were loaded in eight two fold serially diluted concentrations from line A to H in Y-axis (FIG. 1). The original concentrations of peptides were MICs of each. Row 11 are used as growth control with no peptide was included, while row 12 with MHB medium-only wells was included as a sterility control as referred before. 50 uL fresh bacterial suspension was added to well 1-11 and final volume of each well on the plate is 100 uL.\n(§3) To determine whether the combination therapy is additive, synergistic or antagonistic, fractional inhibitory concentration (FIC) indices were calculated. FICI=FICa+FICb=MICac/MICa+MICbc/MICb. The MICa/MICb is the MIC of compound A/B alone. MICac is the MIC of compound A in combination with compound B and MICbc is the MIC of compound B when it was combination with compound A. […]. FICa is FIC of compound A while FICb is FIC of compound B. The FICI is interpreted as follows: synergistic, FICI≤0.5; additive, 0.5<FICI<1; indifferent, 1<FICI<2; antagonistic, FICI>2."}, "[7]": {"test_system": "K. pneumoniae LMG20218", "type": "cell-based, Klebsiella pneumoniae", "source_text": "as §2, §3"}, "[8]": {"test_system": "P. aeruginosa LMG 6395", "type": "cell-based, Pseudomonas aeruginosa", "source_text": "as §2, §3"}, "[9]": {"test_system": "A. baumannii LMG01041", "type": "cell-based, Acinetobacter baumannii", "source_text": "as §2, §3"}, "[10]": {"test_system": "E. aerogenes LMG 02094", "type": "cell-based, Enterobacter aerogenes", "source_text": "as §2, §3"}, "[11]": {"test_system": "A. baumannii LMG01041", "procedure": "(§4) The test of synergistic effect was processed by conducting standard chequerboard broth microdilution assays. […] Row 11 are used as growth control with no peptide was included, while row 12 with MHB medium-only wells was included as a sterility control as referred before. 50 uL fresh bacterial suspension was added to well 1-11 and final volume of each well on the plate is 100 uL.\n(§5) The test of synergistic effect was processed as method 1.4.\nas §3"}, "[12]": {"test_system": "E. aerogenes LMG 02094", "procedure": "as §4, §5, §3"}, "[13]": {"test_system": "E. coli LMG15862", "procedure": "as §4, §5, §3"}, "[14]": {"test_system": "K. pneumoniae LMG20218", "procedure": "as §4, §5, §3"}, "[15]": {"test_system": "P. aeruginosa LMG 6395", "procedure": "as §4, §5, §3"}, "[16]": {"test_system": "Gram-negative pathogens", "type": "cell-based", "settings": "L-form GNPs alone; five Gram-negative pathogens", "procedure": "as §1"}, "[17]": {"test_system": "L. lactis MG1363", "settings": "L. lactis MG1363"}, "[18]": {"settings": "MIC of GNP when used with the MICac concentration of nisin"}, "[19]": {"settings": "MIC of nisin in combination with the GNP at the MICbc concentration"}, "[20]": {"settings": "MIC of GNP in combination with vancomycin at the MICac concentration"}, "[21]": {"settings": "MIC of vancomycin in combination with the GNP at the MICbc concentration"}},
  "note": "“And” between values parts separate entries of the source, which are not always exact repeats. Equal values may be shown once. Read-outs that look alike come from different tables or passages of the source.",
  "data": [
    {"smiles": "CC[C@H](C)[C@H](NC(=O)[C@H](CCCNC(=N)N)NC(=O)[C@H](CCCNC(=N)N)NC(=O)[C@H](Cc1ccccc1)NC(=O)[C@H](CC(C)C)NC(=O)[C@H](CCCNC(=N)N)NC(=O)[C@@H](N)CCCNC(=N)N)C(=O)N[C@@H](CC(C)C)C(=O)N[C@@H](CCCNC(=N)N)C(=O)N[C@@H](Cc1c[nH]c2ccccc12)C(=O)N[C@@H](CC(C)C)C(N)=O", "note": "[GNP-6]", "values": [
      {"measurement": "MIC value of antimicrobial compounds alone", "setting": "[1]", "value": 2, "unit": "µM"},
      {"measurement": "MICb (GNP concentration when used alone)", "setting": "[1]; L-form GNP, Table 6", "value": 2, "unit": "µM"},
      {"measurement": "MIC value", "setting": "[1]; alone", "value": 2, "unit": "µM"},
      {"measurement": "MIC value of antimicrobial compounds alone", "setting": "[2]", "value": 4, "unit": "µM"},
      {"measurement": "MICb (MIC of GNP alone)", "setting": "[2]; L-form GNP, Table 7", "value": 4, "unit": "µM"},
      {"measurement": "MIC value", "setting": "[2]; alone", "value": 4, "unit": "µM"},
      {"measurement": "MICb (MIC of GNP alone)", "setting": "[3]; L-form GNP, Table 7", "value": 3, "unit": "µM"},
      {"measurement": "MIC value of antimicrobial compounds alone", "setting": "[3]", "value": 3, "unit": "µM"},
      {"measurement": "MIC value", "setting": "[3]; alone", "value": 3, "unit": "µM"},
      {"measurement": "MIC value of antimicrobial compounds alone", "setting": "[4]", "value": 2, "unit": "µM"},
      {"measurement": "MICb (MIC of GNP alone)", "setting": "[4]; L-form GNP, Table 7", "value": 2, "unit": "µM"},
      {"measurement": "MIC value", "setting": "[4]; alone", "value": 2, "unit": "µM"},
      {"measurement": "MIC value of antimicrobial compounds alone", "setting": "[5]", "value": 8, "unit": "µM"},
      {"measurement": "MICb (MIC of GNP alone)", "setting": "[5]; L-form GNP, Table 7", "value": 8, "unit": "µM"},
      {"measurement": "MIC value", "setting": "[5]; alone", "value": 8, "unit": "µM"},
      {"measurement": "MICb", "setting": "[6]; MIC of GNP alone", "value": 2, "unit": "µM"},
      {"measurement": "MICbc", "setting": "[6]; [18]", "value": 0.5, "unit": "µM"},
      {"measurement": "MICac", "setting": "[6]; [19]", "value": 1.5, "unit": "µM"},
      {"measurement": "FICI", "setting": "[6]; nisin + GNP", "value": 0.375},
      {"measurement": "MICb", "setting": "[7]; MIC of GNP alone", "value": 4, "unit": "µM"},
      {"measurement": "MICbc", "setting": "[7]; [18]", "value": 0.5, "unit": "µM"},
      {"measurement": "MICac", "setting": "[7]; [19]", "value": 3, "unit": "µM"},
      {"measurement": "FICI", "setting": "[7]; nisin + GNP", "value": 0.188},
      {"measurement": "MICb", "setting": "[8]; MIC of GNP alone", "value": 3, "unit": "µM"},
      {"measurement": "MICbc", "setting": "[8]; [18]", "value": 0.75, "unit": "µM"},
      {"measurement": "MICac", "setting": "[8]; [19]", "value": 4.5, "unit": "µM"},
      {"measurement": "FICI", "setting": "[8]; nisin + GNP", "value": 0.375},
      {"measurement": "MICb", "setting": "[9]; MIC of GNP alone", "value": 2, "unit": "µM"},
      {"measurement": "MICbc", "setting": "[9]; [18]", "value": 0.5, "unit": "µM"},
      {"measurement": "MICac", "setting": "[9]; [19]", "value": 0.75, "unit": "µM"},
      {"measurement": "FICI", "setting": "[9]; nisin + GNP", "value": 0.375},
      {"measurement": "MICb", "setting": "[10]; MIC of GNP alone", "value": 8, "unit": "µM"},
      {"measurement": "MICbc", "setting": "[10]; [18]", "value": 1, "unit": "µM"},
      {"measurement": "MICac", "setting": "[10]; [19]", "value": 1, "unit": "µM"},
      {"measurement": "FICI", "setting": "[10]; nisin + GNP", "value": 0.156},
      {"measurement": "MICb", "setting": "[11]; MIC of GNP alone", "value": 2, "unit": "µM"},
      {"measurement": "MICbc", "setting": "[11]; [20]", "value": "0.5 µM and 1 µM"},
      {"measurement": "MICac", "setting": "[11]; [21]", "value": "8 µM and 4 µM"},
      {"measurement": "FICI", "setting": "[11]; vancomycin + GNP", "value": "0.5 and 0.625"},
      {"measurement": "MICb", "setting": "[12]; MIC of GNP alone", "value": 8, "unit": "µM"},
      {"measurement": "MICbc", "setting": "[12]; [20]", "value": 2, "unit": "µM"},
      {"measurement": "MICac", "setting": "[12]; [21]", "value": 8, "unit": "µM"},
      {"measurement": "FICI", "setting": "[12]; vancomycin + GNP", "value": 0.291},
      {"measurement": "MICb", "setting": "[13]; MIC of GNP alone", "value": 2, "unit": "µM"},
      {"measurement": "MICbc", "setting": "[13]; [20]", "value": 0.5, "unit": "µM"},
      {"measurement": "MICac", "setting": "[13]; [21]", "value": 16, "unit": "µM"},
      {"measurement": "FICI", "setting": "[13]; vancomycin + GNP", "value": 0.5},
      {"measurement": "MICb", "setting": "[14]; MIC of GNP alone", "value": 4, "unit": "µM"},
      {"measurement": "MICbc", "setting": "[14]; [20]", "value": 0.25, "unit": "µM"},
      {"measurement": "MICac", "setting": "[14]; [21]", "value": "32 µM and 16 µM"},
      {"measurement": "FICI", "setting": "[14]; vancomycin + GNP", "value": "0.313 and 0.25 and 0.5"},
      {"measurement": "MICb", "setting": "[15]; MIC of GNP alone", "value": 3, "unit": "µM"},
      {"measurement": "MICbc", "setting": "[15]; [20]", "value": 1.5, "unit": "µM"},
      {"measurement": "MICac", "setting": "[15]; [21]", "value": 32, "unit": "µM"},
      {"measurement": "FICI", "setting": "[15]; vancomycin + GNP", "value": 0.75},
      {"measurement": "Activity ranking amongst all the GNPs", "setting": "[16]", "value": "most potent"},
      {"measurement": "MIC value of antimicrobial compounds alone", "setting": "[17]", "value": 1, "unit": "µM"}
    ]}
  ]
}
